Data on 52 compounds can be found in paper PMC10380188, “A Random Forest Model for Peptide Classification Based on Virtual Docking Data” (International Journal of Molecular Sciences, 2023).

What is called Kd is the concentration at which binding is half-saturated.

No end group written: not given here.

Chain of porcine epidemic diarrhea virus spike (PEDV S) protein (Q91AV1 26-1383): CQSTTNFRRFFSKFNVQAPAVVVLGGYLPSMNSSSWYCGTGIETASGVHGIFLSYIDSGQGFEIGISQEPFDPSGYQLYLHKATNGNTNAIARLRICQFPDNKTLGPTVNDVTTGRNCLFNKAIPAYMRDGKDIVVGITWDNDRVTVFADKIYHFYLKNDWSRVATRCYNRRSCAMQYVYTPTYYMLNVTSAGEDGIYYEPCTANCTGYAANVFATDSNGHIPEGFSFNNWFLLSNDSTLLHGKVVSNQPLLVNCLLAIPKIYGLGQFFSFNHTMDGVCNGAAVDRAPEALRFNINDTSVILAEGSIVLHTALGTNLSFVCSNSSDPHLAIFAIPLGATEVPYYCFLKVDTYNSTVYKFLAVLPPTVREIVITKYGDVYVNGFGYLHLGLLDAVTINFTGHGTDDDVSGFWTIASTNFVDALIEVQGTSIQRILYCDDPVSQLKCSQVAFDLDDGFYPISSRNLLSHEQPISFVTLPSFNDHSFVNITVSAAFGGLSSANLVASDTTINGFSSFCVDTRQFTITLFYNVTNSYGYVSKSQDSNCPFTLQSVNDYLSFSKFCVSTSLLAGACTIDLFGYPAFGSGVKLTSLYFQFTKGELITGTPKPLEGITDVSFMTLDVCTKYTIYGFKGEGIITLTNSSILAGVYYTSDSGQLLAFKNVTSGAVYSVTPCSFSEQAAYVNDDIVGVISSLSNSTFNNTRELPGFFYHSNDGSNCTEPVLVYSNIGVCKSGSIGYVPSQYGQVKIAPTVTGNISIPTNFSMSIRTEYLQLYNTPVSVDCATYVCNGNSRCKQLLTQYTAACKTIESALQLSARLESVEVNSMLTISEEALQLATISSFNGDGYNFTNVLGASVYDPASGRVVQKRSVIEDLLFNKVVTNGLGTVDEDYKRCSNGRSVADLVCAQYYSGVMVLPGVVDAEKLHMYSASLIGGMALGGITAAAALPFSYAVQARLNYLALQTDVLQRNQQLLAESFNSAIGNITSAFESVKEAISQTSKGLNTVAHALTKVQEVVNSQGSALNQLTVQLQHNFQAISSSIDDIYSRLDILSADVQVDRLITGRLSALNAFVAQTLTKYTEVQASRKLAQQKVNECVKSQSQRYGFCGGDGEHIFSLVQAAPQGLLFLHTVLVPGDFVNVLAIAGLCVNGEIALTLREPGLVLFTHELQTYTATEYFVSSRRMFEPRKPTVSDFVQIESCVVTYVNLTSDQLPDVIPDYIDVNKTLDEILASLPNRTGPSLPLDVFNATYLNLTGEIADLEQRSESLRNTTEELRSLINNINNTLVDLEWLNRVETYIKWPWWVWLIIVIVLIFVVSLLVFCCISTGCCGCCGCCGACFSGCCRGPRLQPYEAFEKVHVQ
T1 sequence (P05067 672-713 limits assumed): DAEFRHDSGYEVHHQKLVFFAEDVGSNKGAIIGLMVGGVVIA

One assay concerns the target porcine epidemic diarrhea virus spike (PEDV S) protein (Porcine epidemic diarrhea virus, UniProt Q91AV1). Description: SPR affinity assay, KD of six-amino-acid peptides to PEDV S protein. Type of assay: binding. The note with it: Receptor PEDV S; PEDV peptide dataset used for model performance validation; value repeated on each docking-pose line. The method, then:
(§1) Equilibrium dissociation constants (KD) between all 194 (115 + 79) peptides and their receptor proteins were determined by SPR using the Biacore X100 instrument. Proteins were coupled to the CM5 chip by the EDC/NHS(1-Ethyl-3-(3′-dimethylaminopropyl) carbodiimide/n-Hydroxysuccinimide) method (GE HealthCare, Chicago, IL, USA), followed by running HBS-EP (HEPES Buffered Saline–EDTA–Surfactant P20) buffer (GE HealthCare, USA) that flowed through the entire pipeline. The peptide was diluted in six different concentrations with HBS-EP buffer and flowed into the machine from low to high, and its resonance signal change was detected separately. In each cycle, the peptide solution flowed through the chip at a constant flow rate of 30 μL/min for 120 s, and the peptide reacted fully with the protein, followed by HBS-EP buffer flowing through the chip at the same rate for 120 s, and the peptide was partially dissociated from the protein. Finally, the peptides bound to the proteins were completely eluted off with 0.25% SDS solution for the next cycle until all peptides were detected. The KD between each peptide and protein was calculated and analyzed using Biacore X100 Evaluation Software (Version 2.1) to determine its affinity.
Following the methods described above, a totally new dataset was constructed to further verify the performance of the constructed model. […] Meanwhile, the PEDV peptides were synthesized and tested by SPR successively, and the obtained KD values were further used to define the class of each peptide based on the criteria described above. Finally, the new 6-amino-acid peptide dataset for PEDV S combining all scores of the important features and class information was built to further test the predictive correctness of the RF model (Supplementary Table S2).
`N=C(N)NCCC[C@H](NC(=O)[C@H](CCCCN)NC(=O)[C@H](CO)NC(=O)[C@H](CCCCN)NC(=O)[C@H](Cc1c[nH]c2ccccc12)NC(=O)[C@@H](N)Cc1ccccc1)C(=O)O` [DPL_1031] registered a Kd of 2.16 µM.
The same measure, in the same setting: in the case of FWKAKQ [DPL_1033] it was 45.5 µM; in that of FWKEAK [DPL_1032], 7.72 µM.
The same measure, in the same setting: the figure for FWKISH [DPL_1030] is 28 µM.
The compound FWKQNKCR [DPL_1034] displayed a Kd of 24.2 µM.
Same read-out and setting: the figure for FWKQNKFL [DPL_1035] is 15 µM.
On the same count and under the same terms, the figure for WHFCQH [DPL_1038] is 0.16 µM; for WHFEYF [DPL_1043] it is 43.7 µM.
With WHFFKT [DPL_1039], the Kd came out at 25.7 µM.
WHFHWP [DPL_1045] showed a Kd of 176 µM.
The same measure, in the same setting: the figure for WHFKYR [DPL_1041] is 0.0015 µM; for WHFMIY [DPL_1040] it is 179 µM.
Compound WHFNRP [DPL_1046] displayed a dissociation constant Kd of 65.2 µM.
WHFQNQ [DPL_1037] returned a Kd of 3.23 µM.
Still for that read-out and setting: in the case of WHFSKC [DPL_1036] it was 3.22 µM; in that of WHFWIV [DPL_1042], 15.2 µM.
Take WHFWWQ [DPL_1044]: the Kd is 88.5 µM.

Still in this assay, the particulars now being: Receptor PEDV S; SPR; value repeated on each docking-pose line of the peptide.
On to KHQAHH [DPL_1060], for which the Kd is 0.0431 µM.
The same measure, in the same setting: in the case of KHQWKY [DPL_1062] it was 326 µM.
As for RKQHCK [DPL_1057], the dissociation constant Kd is 1.53 µM.
For the compound RKQHIS [DPL_1056], the Kd is 384 µM. This Kd is about 250-fold higher than that of the compound before.
In turn, RKQHLL [DPL_1055] gave a dissociation constant (Kd) of 1 µM.
Take RKQYWQ [DPL_1058]: binding was put at a Kd of 728 µM.

Staying with this assay, now noted: SPR, peptide to PEDV S protein; value repeated on each docking-pose line of the peptide.
Compound FWKCDV [DPL_1022] had a Kd of 116 µM.
On the same count and under the same terms, in the case of FWKFNE [DPL_1027] it was 56.6 µM; in that of FWKHEK [DPL_1025], 132 µM.
Same read-out and setting: the figure for FWKHRI [DPL_1029] is 36 µM; for FWKLWS [DPL_1024] it is 0.987 µM; for FWKWWW [DPL_1026] it is 17.7 µM.
Turning to FWKYAW [DPL_1028], the Kd worked out at 56.8 µM.
The same measure, in the same setting: in the case of FWKYNT [DPL_1023] it was 32.5 µM.

Staying with this assay, now noted: SPR, receptor PEDV S; value repeated on each of the 20 docking-pose lines per peptide.
FWKFWK [DPL_1018] came in with a Kd of 25.4 µM.
Still for that read-out and setting: the figure for FWKHDI [DPL_1017] is 56.2 µM.
On the same count and under the same terms, in the case of FWKKED [DPL_1020] it was 7.04 µM; in that of FWKPDQ [DPL_1019], 16.7 µM.
On the same count and under the same terms, the figure for FWKPKR [DPL_1021] is 39.5 µM; for FWKQNK [DPL_1013] it is 1190 µM; for FWKSWH [DPL_1016] it is 34.9 µM.
Compound FWKWHW [DPL_1014] showed a Kd of 0.136 µM.
Same read-out and setting: the figure for FWKYHE [DPL_1015] is 43.4 µM.

The assay is the same for the next values; noted with them: receptor PEDV S; PEDV peptide dataset for model performance validation; value repeated on each of the peptide's 20 lines.
For the compound KHQHFG [DPL_1063], the affinity, expressed as Kd, was 9.99 µM.
Take KHQKRC [DPL_1067]: binding was characterised by a dissociation constant (Kd) of 0.139 µM. This Kd is about 72-fold lower than that of the compound before.
KHQVHR [DPL_1064] displayed a Kd of 9.82 µM.

The same assay, now with this note: receptor PEDV S; PEDV peptide dataset used for model performance validation; same value repeated on each line of a peptide.
Compound RKQFDK [DPL_1051] displayed a Kd of 0.00736 µM.
Consider RKQGVK [DPL_1054], for which the dissociation constant (Kd) was 192 µM.
With RKQICW [DPL_1053], the Kd amounted to 21.8 µM.
Still for that read-out and setting: in the case of RKQKDW [DPL_1049] it was 0.35 µM.
With RKQSHK [DPL_1052], the affinity, expressed as Kd, was 44.5 µM.
RKQWPQ [DPL_1050] registered an equilibrium dissociation constant (Kd) of 0.556 µM.
Regarding WHFGSK [DPL_1047], the Kd turned out to be 69.8 µM. This Kd lies about 130-fold higher than the previous one.
Compound WHFMIK [DPL_1048] yielded a Kd of 0.13 µM. Against the preceding compound, the Kd is about 540-fold lower.

A further assay addresses T1, amyloid β-protein 42 (Aβ-42) (Homo sapiens, UniProt P05067).
T1 construct: amyloid β-protein 42 (Aβ-42, n = 79)
The assay is described as follows: SPR affinity assay (Biacore X100), KD of peptides to Aβ-42. Type of assay: binding. The note with it: Biacore X100, protein coupled to CM5 chip, HBS-EP buffer, six peptide concentrations, same value repeated on each docking-run line. The method, then:
as §1
In general terms: SPR reads the build-up and loss of mass on a sensor chip optically.
On to YVRHGH [DPL_1069], for which the Kd was found to be 37.1 µM.
